These results are taken from US8569296B2, “PI3K (delta) selective inhibitors” (Xcovery Holding Company, LLC, priority 2009, dated 2013).

What all share (assay): Kinase binding assay (kinase-tagged T7 phage / qPCR, Ambit Biosciences)
A general note: In qPCR the cycle at which signal appears reflects the starting amount.

Experiment [1] has as its target T1, PI3Kγ (Homo sapiens, UniProt P48736).
T1 construct: purchased Ambit Biosciences; host or cells: E. coli BL21-derived host (T7 phage) or HEK-293
As to conditions: read-out: inhibitory activity (IC50) against PI3Kγ. Here is the method:
(§1) Assays were performed as described in Fabian et al. (2005) Nature Biotechnology, vol. 23, p. 329 and in Karaman et al. (2008) Nature Biotechnology, vol. 26, p. 127.
(§2) Kinase assays. For most assays, kinase-tagged T7 phage strains were grown in parallel in 24-well blocks in an E. coli host derived from the BL21 strain. E. coli were grown to log-phase and infected with T7 phage from a frozen stock (multiplicity of infection ˜0.1) and incubated with shaking at 32° C. until lysis (˜90 minutes). The lysates were centrifuged (6,000×g) and filtered ([…]) to remove cell debris. The remaining kinases were produced in HEK-293 cells and subsequently tagged with DNA for qPCR detection. Streptavidin-coated magnetic beads were treated with biotinylated small molecule ligands for 30 minutes at room temperature to generate affinity resins for kinase assays. The liganded beads were blocked with excess biotin and washed with blocking buffer (SeaBlock (Pierce), 1% BSA, 0.05% Tween 20, 1 mM DTT) to remove unbound ligand and to reduce non-specific phage binding. Binding reactions were assembled by combining kinases, liganded affinity beads, and test compounds in 1× binding buffer (20% SeaBlock, 0.17×PBS, 0.05% Tween 20, 6 mM DTT). Test compounds were prepared as 40× stocks in 100% DMSO and directly diluted into the assay. All reactions were performed in polypropylene 384-well plates in a final volume of 0.04 ml. The assay plates were incubated at room temperature with shaking for 1 hour and the affinity beads were washed with wash buffer (1×PBS, 0.05% Tween 20). The beads were then re-suspended in elution buffer (1×PBS, 0.05% Tween 20, 0.5 mM non-biotinylated affinity ligand) and incubated at room temperature with shaking for 30 minutes. The kinase concentration in the eluates was measured by qPCR.
(§3) Compounds were tested using the above assay at Ambit Biosciences (San Diego, Calif., USA).

Experiment [2] concerns the target T2, PI3Kδ (Homo sapiens, UniProt O00329).
T2 construct: purchased Ambit Biosciences; host or cells: E. coli BL21-derived host (T7 phage) or HEK-293
T2 sequence (O00329 1-1044): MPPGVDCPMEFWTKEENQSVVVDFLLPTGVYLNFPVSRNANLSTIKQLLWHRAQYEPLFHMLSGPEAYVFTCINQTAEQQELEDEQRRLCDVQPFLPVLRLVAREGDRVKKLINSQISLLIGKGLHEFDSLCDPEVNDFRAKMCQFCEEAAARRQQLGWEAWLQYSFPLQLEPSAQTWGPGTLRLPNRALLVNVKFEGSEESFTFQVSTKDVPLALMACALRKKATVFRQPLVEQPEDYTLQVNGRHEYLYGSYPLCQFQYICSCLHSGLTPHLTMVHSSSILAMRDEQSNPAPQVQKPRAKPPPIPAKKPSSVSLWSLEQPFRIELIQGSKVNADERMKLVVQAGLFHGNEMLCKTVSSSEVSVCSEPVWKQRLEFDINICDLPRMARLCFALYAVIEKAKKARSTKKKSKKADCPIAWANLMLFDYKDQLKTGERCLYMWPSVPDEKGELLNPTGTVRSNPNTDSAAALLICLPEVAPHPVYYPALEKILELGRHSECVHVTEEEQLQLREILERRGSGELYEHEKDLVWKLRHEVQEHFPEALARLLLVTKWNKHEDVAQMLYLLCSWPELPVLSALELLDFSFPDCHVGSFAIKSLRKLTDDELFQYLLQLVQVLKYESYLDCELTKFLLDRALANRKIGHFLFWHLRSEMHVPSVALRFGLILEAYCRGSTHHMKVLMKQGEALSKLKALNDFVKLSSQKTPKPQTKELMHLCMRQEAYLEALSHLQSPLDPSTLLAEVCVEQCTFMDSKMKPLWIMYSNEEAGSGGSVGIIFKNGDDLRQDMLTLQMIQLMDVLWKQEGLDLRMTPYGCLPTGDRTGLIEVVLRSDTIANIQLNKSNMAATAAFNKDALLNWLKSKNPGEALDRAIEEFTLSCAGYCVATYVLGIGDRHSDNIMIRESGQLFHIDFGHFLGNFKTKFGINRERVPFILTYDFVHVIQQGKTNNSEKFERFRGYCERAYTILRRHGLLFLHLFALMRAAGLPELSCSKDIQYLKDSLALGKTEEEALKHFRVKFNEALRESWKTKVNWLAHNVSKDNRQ
As for the experimental part:
as §1, §2, §3

The target in experiment [3] is T3, PI3Kα (Homo sapiens, UniProt P42336).
T3 construct: purchased Ambit Biosciences; host or cells: E. coli BL21-derived host (T7 phage) or HEK-293
T3 sequence (P42336 whole entry): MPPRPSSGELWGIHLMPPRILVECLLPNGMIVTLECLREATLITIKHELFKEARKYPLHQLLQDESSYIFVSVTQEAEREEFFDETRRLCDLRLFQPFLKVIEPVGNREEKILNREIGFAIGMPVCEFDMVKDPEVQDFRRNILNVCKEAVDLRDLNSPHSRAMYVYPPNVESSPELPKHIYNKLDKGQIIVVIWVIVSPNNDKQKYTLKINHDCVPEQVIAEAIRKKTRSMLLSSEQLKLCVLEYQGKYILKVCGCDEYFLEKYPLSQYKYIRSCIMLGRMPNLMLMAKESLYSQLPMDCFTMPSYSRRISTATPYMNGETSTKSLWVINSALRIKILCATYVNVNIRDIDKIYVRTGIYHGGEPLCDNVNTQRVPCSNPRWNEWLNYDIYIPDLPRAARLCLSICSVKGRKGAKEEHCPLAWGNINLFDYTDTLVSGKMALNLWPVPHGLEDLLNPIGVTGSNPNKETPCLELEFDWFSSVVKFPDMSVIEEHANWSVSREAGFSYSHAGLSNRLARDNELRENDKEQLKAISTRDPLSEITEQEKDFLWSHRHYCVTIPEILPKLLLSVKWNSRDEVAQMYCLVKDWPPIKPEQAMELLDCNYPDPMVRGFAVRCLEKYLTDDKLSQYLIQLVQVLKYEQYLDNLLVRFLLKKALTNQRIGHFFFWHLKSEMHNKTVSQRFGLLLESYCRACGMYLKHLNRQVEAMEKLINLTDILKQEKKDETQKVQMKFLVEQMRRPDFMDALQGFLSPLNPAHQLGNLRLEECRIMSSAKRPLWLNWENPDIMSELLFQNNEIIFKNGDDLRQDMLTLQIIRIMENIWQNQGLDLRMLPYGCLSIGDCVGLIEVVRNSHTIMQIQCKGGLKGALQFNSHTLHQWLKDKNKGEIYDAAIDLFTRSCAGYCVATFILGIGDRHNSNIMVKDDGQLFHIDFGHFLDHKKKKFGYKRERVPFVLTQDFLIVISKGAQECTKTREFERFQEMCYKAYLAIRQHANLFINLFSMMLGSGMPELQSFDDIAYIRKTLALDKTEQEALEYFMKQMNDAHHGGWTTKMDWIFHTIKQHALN
As to conditions: read-out: inhibitory activity (IC50) against PI3Kα. As for the experimental part: as §1, §2, §3

The target in experiment [4] is T4, PI3Kβ (Homo sapiens, UniProt P42338).
T4 construct: purchased Ambit Biosciences; host or cells: E. coli BL21-derived host (T7 phage) or HEK-293
T4 sequence (P42338 whole entry): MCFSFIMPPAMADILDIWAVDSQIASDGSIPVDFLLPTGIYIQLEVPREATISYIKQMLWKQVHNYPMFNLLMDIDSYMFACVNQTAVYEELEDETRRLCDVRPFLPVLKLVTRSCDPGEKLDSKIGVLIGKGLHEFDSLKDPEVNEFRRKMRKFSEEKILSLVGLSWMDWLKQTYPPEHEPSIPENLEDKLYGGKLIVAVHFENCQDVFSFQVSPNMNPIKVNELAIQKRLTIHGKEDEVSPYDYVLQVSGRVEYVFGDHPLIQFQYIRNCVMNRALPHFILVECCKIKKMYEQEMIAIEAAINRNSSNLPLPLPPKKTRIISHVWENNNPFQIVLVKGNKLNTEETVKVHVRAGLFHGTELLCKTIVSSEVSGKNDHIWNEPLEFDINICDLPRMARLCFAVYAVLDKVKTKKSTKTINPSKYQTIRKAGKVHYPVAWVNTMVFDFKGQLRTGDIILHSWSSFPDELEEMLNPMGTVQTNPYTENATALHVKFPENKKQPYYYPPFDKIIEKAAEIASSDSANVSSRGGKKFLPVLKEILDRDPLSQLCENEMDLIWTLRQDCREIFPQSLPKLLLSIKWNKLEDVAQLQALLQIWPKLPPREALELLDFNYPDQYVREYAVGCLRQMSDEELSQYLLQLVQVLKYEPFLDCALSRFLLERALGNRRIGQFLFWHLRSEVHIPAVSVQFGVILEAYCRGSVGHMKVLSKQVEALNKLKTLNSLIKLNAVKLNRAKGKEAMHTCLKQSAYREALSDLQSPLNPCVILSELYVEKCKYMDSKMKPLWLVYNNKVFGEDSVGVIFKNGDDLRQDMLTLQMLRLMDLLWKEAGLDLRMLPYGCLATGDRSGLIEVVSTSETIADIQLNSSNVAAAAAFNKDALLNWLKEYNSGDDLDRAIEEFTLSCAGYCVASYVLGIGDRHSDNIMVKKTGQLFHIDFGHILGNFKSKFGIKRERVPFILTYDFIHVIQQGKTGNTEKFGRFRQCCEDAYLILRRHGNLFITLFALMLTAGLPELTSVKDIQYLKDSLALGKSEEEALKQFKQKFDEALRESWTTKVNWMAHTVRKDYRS
The following applies: read-out: inhibitory activity (IC50) against PI3Kβ. Here is the method:
as §1, §2, §3

Experiment [5] concerns the target T5, mTOR (Homo sapiens, UniProt P42345).
T5 construct: purchased Ambit Biosciences; host or cells: E. coli BL21-derived host (T7 phage) or HEK-293
The following applies: read-out: inhibitory activity (IC50) against mTOR. Here is the method: as §1, §2, §3

The structures appear in SMILES notation. Like-named read-outs stand apart in the source and are kept apart here.

T1 sequence (P48736 whole entry): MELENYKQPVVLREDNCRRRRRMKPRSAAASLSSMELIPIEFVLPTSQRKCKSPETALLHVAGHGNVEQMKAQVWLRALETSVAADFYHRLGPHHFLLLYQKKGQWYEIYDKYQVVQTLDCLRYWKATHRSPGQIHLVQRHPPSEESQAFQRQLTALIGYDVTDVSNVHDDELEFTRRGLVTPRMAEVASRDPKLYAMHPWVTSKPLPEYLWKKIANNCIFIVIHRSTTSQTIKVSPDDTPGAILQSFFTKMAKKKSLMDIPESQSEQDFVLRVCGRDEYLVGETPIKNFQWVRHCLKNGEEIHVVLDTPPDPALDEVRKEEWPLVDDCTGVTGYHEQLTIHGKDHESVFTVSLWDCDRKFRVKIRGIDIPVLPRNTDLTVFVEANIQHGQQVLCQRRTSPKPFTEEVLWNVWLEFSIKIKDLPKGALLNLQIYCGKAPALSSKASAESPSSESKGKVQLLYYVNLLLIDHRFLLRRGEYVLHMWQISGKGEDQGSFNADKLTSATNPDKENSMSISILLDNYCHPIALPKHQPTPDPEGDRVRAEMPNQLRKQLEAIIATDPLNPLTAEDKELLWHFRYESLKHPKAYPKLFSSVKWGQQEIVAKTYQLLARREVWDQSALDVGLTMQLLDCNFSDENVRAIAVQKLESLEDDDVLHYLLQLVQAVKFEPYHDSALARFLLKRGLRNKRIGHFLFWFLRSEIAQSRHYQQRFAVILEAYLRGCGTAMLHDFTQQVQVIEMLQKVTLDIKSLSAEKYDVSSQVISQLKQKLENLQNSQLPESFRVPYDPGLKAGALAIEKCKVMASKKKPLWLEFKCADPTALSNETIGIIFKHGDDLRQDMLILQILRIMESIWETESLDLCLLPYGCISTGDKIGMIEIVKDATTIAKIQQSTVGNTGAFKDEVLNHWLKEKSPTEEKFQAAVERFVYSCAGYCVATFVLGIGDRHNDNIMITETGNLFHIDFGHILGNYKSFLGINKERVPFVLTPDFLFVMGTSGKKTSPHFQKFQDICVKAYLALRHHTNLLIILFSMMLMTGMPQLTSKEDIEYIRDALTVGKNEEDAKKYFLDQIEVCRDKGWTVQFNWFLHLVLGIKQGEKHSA

In the case of `COc1cccc2c1nc(C(F)F)n2-c1nc(N2CCOCC2)nc2c1ncn2C1CCOCC1` [Example 21, 1-(9-(2H-3,4,5,6-tetrahydropyran-4-yl)-2-morpholin-4-ylpurin-6-yl)-2-(difluoromethyl)-4-methoxybenzimidazole], the IC50 (in general, the concentration needed to halve the response being measured) in experiment [1] is less than 100 nM; in experiment [2] (read-out: IC50, inhibition against PI3Kδ), less than 100 nM; in experiment [3], less than 100 nM.

Regarding `OCCn1cnc2c(-n3c(C(F)F)nc4ccccc43)nc(N3CCOCC3)nc21` [Example 2, 2-{6-[2-(difluoromethyl)benzimidazol-1-yl]-2-morpholin-4-ylpurin-9-yl}ethan-1-ol], the IC50 was more than 100 nM in experiment [1]; less than 100 nM in experiment [2]; more than 100 nM in experiment [4]; more than 100 nM in experiment [3]; more than 100 nM in experiment [5].

For `Cc1nc2ccccc2n1-c1nc(N2CCOCC2)nc2c1ncn2CCO` [Example 2d, reference compound], the “inhibition against PI3Kδ” value in experiment [2] (at up to 100 nM) is recorded as “did not show significant inhibition”.
